The values that follow come from US20190134005A1 (BioMarin Pharmaceutical Inc., priority 2016, published 2019).

Read-outs that look alike come from different tables or passages of the source. A value given as a limit tells only on which side of the number the result lay.

The test concerns the target T1, human CGT (Homo sapiens, UniProt Q16880).
T1 sequence (Q16880 21-541): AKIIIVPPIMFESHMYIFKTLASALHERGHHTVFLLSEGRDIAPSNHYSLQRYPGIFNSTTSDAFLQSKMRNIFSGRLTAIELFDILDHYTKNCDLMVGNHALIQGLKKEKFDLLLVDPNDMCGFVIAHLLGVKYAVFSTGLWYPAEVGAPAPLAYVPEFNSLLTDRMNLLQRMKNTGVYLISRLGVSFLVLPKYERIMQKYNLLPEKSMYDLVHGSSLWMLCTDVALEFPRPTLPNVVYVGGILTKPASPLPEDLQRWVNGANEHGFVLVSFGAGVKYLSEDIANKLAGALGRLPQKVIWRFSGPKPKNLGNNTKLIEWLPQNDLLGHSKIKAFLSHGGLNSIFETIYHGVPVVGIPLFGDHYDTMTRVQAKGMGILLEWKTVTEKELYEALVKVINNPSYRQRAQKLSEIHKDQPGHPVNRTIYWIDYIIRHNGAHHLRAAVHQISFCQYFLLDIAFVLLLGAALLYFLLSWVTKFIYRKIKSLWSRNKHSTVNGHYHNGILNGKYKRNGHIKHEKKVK
Put plainly: Assay 1: CGT Enzymatic Assay (RapidFire/MS/MS, 0.01% Tween 80). It is filed as biochemical.

Where [1] appears, read: Table 1, Compounds of Formula (I) and Formula (II), CGT enzymatic assay, read-out: IC50.

For orientation: IC50 means the point on the concentration scale where inhibition reaches its midpoint. For `CC1(C)N(c2ccc(Cl)cc2)C(=O)N(c2ccc(Cl)cc2)C1(O)c1cccnc1` (stereo not shown) [Example 189, 1,3-bis(4-chlorophenyl)-4-hydroxy-5,5-dimethyl-4-(pyridin-3-yl)imidazolidin-2-one], the IC50 under setting [1] was < 1 µM.

Turning to `CC1(c2cccc(C(F)(F)F)c2)C(O)N(c2ccc(Cl)cc2)C(=O)N1c1ccc(Cl)cc1` (stereo not shown) [Example 190, 1,3-bis(4-chlorophenyl)-5-hydroxy-4-methyl-4-(3-(trifluoromethyl)phenyl)imidazolidin-2-one], under setting [1], the IC50 is < 1 µM. Same read-out and setting: to `C[C@]1(c2cccc(C(F)(F)F)c2)C(O)N(c2ccc(Cl)cc2)C(=O)N1c1ccc(Cl)cc1` (stereo partly drawn) [Example 190-1, (4S)-1,3-bis(4-chlorophenyl)-5-hydroxy-4-methyl-4-(3-(trifluoromethyl)phenyl)imidazolidin-2-one] belongs > 50 µM. On to `C[C@@]1(c2cccc(C(F)(F)F)c2)C(O)N(c2ccc(Cl)cc2)C(=O)N1c1ccc(Cl)cc1` (stereo partly drawn) [Example 190-2, (4R)-1,3-bis(4-chlorophenyl)-5-hydroxy-4-methyl-4-(3-(trifluoromethyl)phenyl)imidazolidin-2-one], for which the IC50 under setting [1] is < 1 µM. As for `O=C1N(c2ccc(Cl)cc2)C(C2CCC2)C(O)(c2cccc(OC(F)(F)F)c2)N1c1ccc(Cl)cc1` (stereo not shown) [Example 191, 1,3-bis(4-chlorophenyl)-5-cyclobutyl-4-hydroxy-4-(3-(trifluoromethoxy)phenyl)imidazolidin-2-one], the IC50 under setting [1] is < 1 µM. For `O=C1N(c2ccc(Cl)cc2)[C@@H](C2CCC2)C(O)(c2cccc(OC(F)(F)F)c2)N1c1ccc(Cl)cc1` (stereo partly drawn) [Example 191-1, (5S)-1,3-bis(4-chlorophenyl)-5-cyclobutyl-4-hydroxy-4-(3-(trifluoromethoxy)phenyl)imidazolidin-2-one], the IC50 under setting [1] is < 1 µM.

Turning to `O=C1N(c2ccc(Cl)cc2)[C@H](C2CCC2)C(O)(c2cccc(OC(F)(F)F)c2)N1c1ccc(Cl)cc1` (stereo partly drawn) [Example 191-2, (5R)-1,3-bis(4-chlorophenyl)-5-cyclobutyl-4-hydroxy-4-(3-(trifluoromethoxy)phenyl)imidazolidin-2-one], the IC50 under setting [1] was < 1 µM.

Regarding `CC1(C)N(c2ccc(C(F)(F)F)cc2)C(=O)N(c2ccc(C(F)(F)F)cc2)C1(O)c1cccc(C#N)c1` (stereo not shown) [Example 192, 3-(4-hydroxy-5,5-dimethyl-2-oxo-1,3-bis(4-(trifluoromethyl)phenyl)-imidazolidin-4-yl)benzonitrile], under setting [1], the IC50 was < 1 µM.

On to `CC1(O)C(=O)N(c2ccc(Br)cc2)C(=O)N1c1ccc(Br)cc1` (stereo not shown) [Example 193, 1,3-bis(4-bromophenyl)-5-hydroxy-5-methylimidazolidine-2,4-dione], for which, under setting [1], the IC50 lay in the range of 50 to 100 µM. Regarding `N#Cc1cccc(C2(O)C(C3CCC3)N(c3ccc(Cl)cc3)C(=O)N2c2ccc(Cl)cc2)c1` (stereo not shown) [Example 194, 3-(1,3-bis(4-chlorophenyl)-5-cyclobutyl-4-hydroxy-2-oxoimidazolidin-4-yl)benzonitrile], under setting [1], the IC50 is < 1 µM. Same read-out and setting: the figure for `N#Cc1cccc(C2(O)[C@H](C3CCC3)N(c3ccc(Cl)cc3)C(=O)N2c2ccc(Cl)cc2)c1` (stereo partly drawn) [Example 194-1, 3-((5S)-1,3-bis(4-chlorophenyl)-5-cyclobutyl-4-hydroxy-2-oxoimidazolidin-4-yl)benzonitrile] is < 1 µM; for `N#Cc1cccc(C2(O)[C@@H](C3CCC3)N(c3ccc(Cl)cc3)C(=O)N2c2ccc(Cl)cc2)c1` (stereo partly drawn) [Example 194-2, 3-((5R)-1,3-bis(4-chlorophenyl)-5-cyclobutyl-4-hydroxy-2-oxoimidazolidin-4-yl)benzonitrile] it is < 1 µM; for `O=C1N(c2ccc(Br)cc2)C(=O)C(O)(c2cccc3ccccc23)N1c1ccc(Br)cc1` (stereo not shown) [Example 195, 1,3-bis(4-bromophenyl)-5-hydroxy-5-(naphthalen-1-yl)imidazolidine-2,4-dione] it is > 50 µM. Regarding `CC(C)C1N(c2ccc(C(F)(F)F)cc2)C(=O)N(c2ccc(C(F)(F)F)cc2)C1(O)c1cccc(OC(F)(F)F)c1` (stereo not shown) [Example 196, 4-hydroxy-5-isopropyl-4-(3-(trifluoromethoxy)phenyl)-1,3-bis(4-(trifluoromethyl)phenyl)imidazolidin-2-one], the IC50 under setting [1] was < 1 µM. Same read-out and setting: to `CC(C)[C@@H]1N(c2ccc(C(F)(F)F)cc2)C(=O)N(c2ccc(C(F)(F)F)cc2)C1(O)c1cccc(OC(F)(F)F)c1` (stereo partly drawn) [Example 196-1, (5S)-4-hydroxy-5-isopropyl-4-(3-(trifluoromethoxy)phenyl)-1,3-bis(4-(trifluoromethyl)phenyl)imidazolidin-2-one] belongs < 1 µM; to `O=C1N(c2ccc(Br)cc2)C(=O)C(O)(c2ccc(Cl)s2)N1c1ccc(Br)cc1` (stereo not shown) [Example 197, 1,3-bis(4-bromophenyl)-5-(5-chlorothiophen-2-yl)-5-hydroxyimidazolidine-2,4-dione], 10 to 50 µM; to `O=C1N(c2ccc(Br)cc2)C(=O)C(O)(c2ccco2)N1c1ccc(Br)cc1` (stereo not shown) [Example 198, 1,3-bis(4-bromophenyl)-5-(furan-2-yl)-5-hydroxyimidazolidine-2,4-dione], > 50 µM. In the case of `CCCCCCCCC1(O)C(=O)N(c2ccc(Br)cc2)C(=O)N1c1ccc(Br)cc1` (stereo not shown) [Example 199, 1,3-bis(4-bromophenyl)-5-hydroxy-5-octylimidazolidine-2,4-dione], the IC50 under setting [1] is > 50 µM. With `Cc1ccc(C2(O)C(=O)N(c3ccc(Br)cc3)C(=O)N2c2ccc(Br)cc2)cc1` (stereo not shown) [Example 200, 1,3-bis(4-bromophenyl)-5-hydroxy-5-(p-tolyl)imidazolidine-2,4-dione], under setting [1], the IC50 fell in the range of 50 to 100 µM. With `O=C1N(c2ccc(Br)cc2)C(=O)C(O)(c2nccs2)N1c1ccc(Br)cc1` (stereo not shown) [Example 201, 1,3-bis(4-bromophenyl)-5-hydroxy-5-(thiazol-2-yl)imidazolidine-2,4-dione], the IC50 under setting [1] was > 50 µM. Still for that read-out and setting: to `COc1ccc(C2(O)C(=O)N(c3ccc(Br)cc3)C(=O)N2c2ccc(Br)cc2)cn1` (stereo not shown) [Example 202, 1,3-bis(4-bromophenyl)-5-hydroxy-5-(6-methoxypyridin-3-yl)imidazolidine-2,4-dione] belongs 10 to 50 µM. With `O=C1N(c2ccc(I)cc2)C(=O)C(O)(c2ccccc2)N1c1ccc(I)cc1` (stereo not shown) [Example 203, 5-hydroxy-1,3-bis(4-iodophenyl)-5-phenylimidazolidine-2,4-dione], the IC50 under setting [1] is 10 to 50 µM. Same read-out and setting: the figure for `O=C1N(c2ccc(Br)cc2)C(=O)C(O)(c2cccs2)N1c1ccc(Br)cc1` (stereo not shown) [Example 205, 1,3-bis(4-bromophenyl)-5-hydroxy-5-(thiophen-2-yl)imidazolidine-2,4-dione] is 50 to 100 µM; for `COc1ccccc1C1(O)C(=O)N(c2ccc(Br)cc2)C(=O)N1c1ccc(Br)cc1` (stereo not shown) [Example 206, 1,3-bis(4-bromophenyl)-5-hydroxy-5-(2-methoxyphenyl)imidazolidine-2,4-dione] it is > 50 µM. For the molecule `O=C1N(c2ccc(Br)cc2)C(=O)C(O)(C2CCOCC2)N1c1ccc(Br)cc1` (stereo not shown) [Example 207, 1,3-bis(4-bromophenyl)-5-hydroxy-5-(tetrahydro-2H-pyran-4-yl)imidazolidine-2,4-dione], under setting [1], the IC50 was 10 to 50 µM. Same read-out and setting: the figure for `COc1ccc(C2(O)C(=O)N(c3ccc(Br)cc3)C(=O)N2c2ccc(Br)cc2)nc1` (stereo not shown) [Example 208, 1,3-bis(4-bromophenyl)-5-hydroxy-5-(5-methoxypyridin-2-yl)imidazolidine-2,4-dione] is 50 to 100 µM. In the case of `O=C1N(c2ccc(Br)cc2)C(O)[C@@](c2ccccc2)(C2CC2)N1c1ccc(Br)cc1` (stereo partly drawn) [Example 209-1, (4S)-1,3-bis(4-bromophenyl)-4-cyclopropyl-5-hydroxy-4-phenylimidazolidin-2-one], the IC50 under setting [1] fell in the range of 10 to 50 µM.

`O=C1N(c2ccc(Br)cc2)C(O)[C@](c2ccccc2)(C2CC2)N1c1ccc(Br)cc1` (stereo partly drawn) [Example 209-2, (4R)-1,3-bis(4-bromophenyl)-4-cyclopropyl-5-hydroxy-4-phenylimidazolidin-2-one]: the IC50 under setting [1] is < 1 µM. In turn, `O=C1N(c2ccc(Br)cc2)C(=O)C(O)(c2cc3ccccc3[nH]2)N1c1ccc(Br)cc1` (stereo not shown) [Example 210, 1,3-bis(4-bromophenyl)-5-hydroxy-5-(1H-indol-2-yl)imidazolidine-2,4-dione] yielded an IC50 of 10 to 50 µM. Consider `O=C1N(c2ccc(Br)cc2)C(=O)C(O)(c2ccc[nH]2)N1c1ccc(Br)cc1` (stereo not shown) [Example 211, 1,3-bis(4-bromophenyl)-5-hydroxy-5-(1H-pyrrol-2-yl)imidazolidine-2,4-dione], for which, under setting [1], the IC50 was 10 to 50 µM. Same read-out and setting: the figure for `N#Cc1cccc(C2(O)N(c3ccc(C(F)(F)F)cc3)C(=O)N(c3ccc(C(F)(F)F)cc3)C23CCC3)c1` (stereo not shown) [Example 212, 3-(8-hydroxy-6-oxo-5,7-bis(4-(trifluoromethyl)phenyl)-5,7-diazaspiro[3.4]octan-8-yl)benzonitrile] is < 1 µM. For `O=C1N(c2ccc(Br)cc2)C(=O)C(O)(c2cc3ccccc3o2)N1c1ccc(Br)cc1` (stereo not shown) [Example 213, 5-(benzofuran-2-yl)-1,3-bis(4-bromophenyl)-5-hydroxyimidazolidine-2,4-dione], the IC50 under setting [1] is > 50 µM. On the same count and under the same terms, to `O=C1N(c2ccc(Br)cc2)C(=O)C(O)(c2cc3ccccc3s2)N1c1ccc(Br)cc1` (stereo not shown) [Example 214, 5-(benzo[b]thiophen-2-yl)-1,3-bis(4-bromophenyl)-5-hydroxyimidazolidine-2,4-dione] belongs 10 to 50 µM; to `O=C1N(c2ccc(Br)cc2)C(=O)C(O)(C2Cc3ccccc3C2)N1c1ccc(Br)cc1` (stereo not shown) [Example 215, 1,3-bis(4-bromophenyl)-5-(2,3-dihydro-1H-inden-2-yl)-5-hydroxyimidazolidine-2,4-dione], 50 to 100 µM.
